23 compounds from patent US10669238B2, “Irreversible bruton's tyrosine kinase inhibitor” (HEFEI INSTITUTES OF PHYSICAL SCIENCE, CHINESE ACADEMY OF …, priority 2016, dated 2020) can be followed below.

BTK protein kinase, sequence (Q06187 whole entry): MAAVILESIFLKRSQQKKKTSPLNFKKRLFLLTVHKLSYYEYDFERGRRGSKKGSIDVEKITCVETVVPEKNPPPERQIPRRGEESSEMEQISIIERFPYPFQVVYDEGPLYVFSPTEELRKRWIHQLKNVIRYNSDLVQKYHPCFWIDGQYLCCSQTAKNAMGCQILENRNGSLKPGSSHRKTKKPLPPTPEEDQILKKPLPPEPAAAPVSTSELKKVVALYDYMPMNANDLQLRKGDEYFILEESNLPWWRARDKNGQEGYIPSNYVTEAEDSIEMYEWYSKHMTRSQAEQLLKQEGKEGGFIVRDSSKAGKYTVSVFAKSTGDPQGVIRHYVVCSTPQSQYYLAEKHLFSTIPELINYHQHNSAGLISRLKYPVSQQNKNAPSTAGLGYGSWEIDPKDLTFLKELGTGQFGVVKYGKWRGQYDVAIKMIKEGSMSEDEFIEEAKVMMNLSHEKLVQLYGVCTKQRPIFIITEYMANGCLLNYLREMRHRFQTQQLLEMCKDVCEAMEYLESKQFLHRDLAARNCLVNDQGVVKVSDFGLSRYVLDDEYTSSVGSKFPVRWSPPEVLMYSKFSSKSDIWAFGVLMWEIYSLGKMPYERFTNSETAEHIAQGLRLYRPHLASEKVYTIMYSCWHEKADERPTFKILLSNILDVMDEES

The first assay addresses BTK protein kinase (Homo sapiens, UniProt Q06187). The experiment in a line: In vitro enzymatic activity against BTK (ADP-Glo). The following applies: compound with BTK 4 hours at room temperature; ATP 10 μM, 37° C. 1 hour; values given in μM. Format: biochemical. Here is the method: In vitro enzymatic activity of the compounds against BTK was determined in a experimental assay of in vitro enzymatic activity using […] kit (purchased from Progema, USA).
9 μL of BTK protein kinase (at a concentration of 1.5 ng/μL) was used to react with compounds (1 μL) shown in the following table that were diluted three times in gradient at room temperature for 4 hours (the final concentration of the compound being 10 μM, 3 μM, 1 μM, 0.3 μM, 0.1 μM, 0.03 μM, 0.01 μM, 0.003 μM);
2 μL of ATP and 3 μL of the substrate Poly(4:1 Glu, Tyr)Peptide (Promega, USA) (the final concentrations being 10 μM and 0.2 μg/μL, respectively) were added to allow reaction at 37° C. for 1 hour;
5 μL of BTK kinase solution after reaction was taken and added into 5 μL of ADP-Glo™ (Promega, USA) reagent to allow reaction at room temperature for 40 mins so as to terminate the kinase reaction and exhaust the remaining ATP;
10 μL kinase detecting reagent was added to convert ADP to ATP, and newly synthesized ATP was detected using coupled luciferase/[…] reaction, then the IC50 values were calculated by using a plotting method based on the Envision reading.
`C=CC(=O)Nc1cc(Nc2cc(-c3cccc(NC(=O)c4ccccc4)c3C)cn(C)c2=O)ccc1C(=O)N1CCOCC1` [Compound 12, N-(3-(5-((3-acrylamide-4-(morpholin-4-carbonyl)phenyl)amino)-1-methyl-6-oxo-1,6-dihydropyridin-3-yl)-2-methylphenyl)benzoylamide]: the IC50 amounted to 4.62 µM.
Still for that read-out and setting: next, `C=CC(=O)Nc1cc(NC(=O)c2ccc(C(C)(C)C)cc2)c(C)c(-c2cc(Nc3ccc(C(=O)N4CCOCC4)cc3)c(=O)n(C)c2)c1` [Compound 8, 4-(tert-butyl)-N-(5-(2-acrylamide)-2-methyl-3-(1-methyl-5-((4-(morpholin-4-carbonyl)phenyl)amino)-6-oxo-1,6-dihydropyridin-3-yl)phenyl)benzoylamide]: 2.61 µM.
In turn, `Cc1c(NC(=O)c2ccc(C(C)(C)C)cc2)cccc1-c1cc(Nc2cccc(NC(=O)CCl)c2)c(=O)n(C)c1` [Compound 22, N-(3-(5-((3-chloroacetamidephenyl)amino)-1-methyl-6-oxo-1,6-dihydropyridin-3-yl)-2-methylphenyl)-4-(tert-butyl)benzamide] showed a half-inhibitory concentration (IC50) of 5.53 µM. Compared with the last compound, the IC50 is about 2.1-fold higher.

Staying with this assay, now noted: compound with BTK 4 hours at room temperature; ATP 10 μM, 37° C. 1 hour; values in nM.
Regarding `Cc1ccc(C(=O)Nc2cccc(-c3cc(Nc4ccc(C(=O)N5CCOCC5)c(NC(=O)CCl)c4)c(=O)n(C)c3)c2C)cc1` [Compound 11, N-(3-(5-((3-chloroacetamide-4-(morpholin-4-carbonyl)phenyl)amino)-1-methyl-6-oxo-1,6-dihydropyridin-3-yl)-2-methylphenyl)-4-(methyl)benzoylamide], inhibition was half-maximal at 0.152 µM (IC50).
`C=CC(=O)Nc1cc(Nc2cc(-c3cccc(NC(=O)c4ccc(C(C)(C)C)cc4)c3C)cn(C)c2=O)ccc1C(=O)N(C)C` [Compound 28, 2-acrylamide-4-((5-(3-(4-(tert-butyl)benzamide)-2-methylphenyl)-1-methyl-2-oxo-1,2-dihydropyridin-3-yl)amino)-N,N-dimethylbenzoylamide] came in with an IC50 of 0.025 µM. Compared with the last compound, the IC50 is about 6.1-fold lower.
For the compound `C=CC(=O)Nc1cc(Nc2cc(-c3cccc(NC(=O)c4cc5ccccc5s4)c3C)cn(C)c2=O)ccc1N1CCC(N(C)C)CC1` [Compound 84, N-(3-(5-((3-acrylamide-4-(4-(dimethylamino)piperidin-1-yl)phenyl)amino)-1-methyl-6-oxo-1,6-dihydropyridin-3-yl)-2-methylphenyl)benzo[b]thiophene-2-carboxamide], the 50% inhibitory concentration (IC50) was 0.0078 µM.
`Cc1c(NC(=O)c2ccc(N3CCOCC3)cc2)cccc1-c1cc(Nc2ccc(C(=O)N3CCOCC3)c(NC(=O)CCl)c2)c(=O)n(C)c1` [Compound 16, N-(3-(5-((3-chloroacetamide-4-(morpholin-4-carbonyl)phenyl)amino)-1-methyl-6-oxo-1,6-dihydropyridin-3-yl)-2-methylphenyl)-4-morpholinbenzoylamide] yielded an IC50 of 0.437 µM.
`C=CC(=O)Nc1cc(Nc2cc(-c3cccc(NC(=O)c4cc5ccccc5s4)c3C)cn(C)c2=O)ccc1N1CCN(C(C)C)CC1` [Compound 90, N-(3-(5-((3-acrylamide-4-(4-isopropylpiperazin-1-yl)phenyl)amino)-1-methyl-6-oxo-1,6-dihydropyridin-3-yl)-2-methylphenyl)benzo[b]thiophene-2-carboxamide] yielded an IC50 of 0.0065 µM.
In turn, `C=CC(=O)Nc1cc(Nc2cc(-c3cccc(NC(=O)c4ccc(C(C)(C)C)cc4)c3C)cn(C)c2=O)ccc1C(=O)NC1CC1` [Compound 46, 2-acrylamide-4-((5-(3-(4-(tert-butyl)benzamide)-2-methylphenyl)-1-methyl-2-oxo-1,2-dihydropyridin-3-yl)amino)-N-cyclopropylbenzoylamide] showed an IC50 of 0.045 µM.
Turning to `Cc1ccc(Nc2cc(-c3cccc(NC(=O)c4ccc(C(C)(C)C)cc4)c3C)cn(C)c2=O)cc1NC(=O)CCl` [Compound 26, N-(3-(5-((3-chloroacetamide-4-methylphenyl)amino)-1-methyl-6-oxo-1,6-dihydropyridin-3-yl)-2-methylphenyl)-4-(tert-butyl)benzamide], half-maximal inhibition (IC50) required 0.223 µM.
The compound `C=CC(=O)Nc1cc(Nc2cc(-c3cccc(NC(=O)c4cc5ccccc5s4)c3C)cn(C)c2=O)ccc1N1CCN(C)CC1` [Compound 81, N-(3-(5-((3-acrylamide-4-(4-methylpiperazin-1-yl)phenyl)amino)-1-methyl-6-oxo-1,6-dihydropyridin-3-yl)-2-methylphenyl)-benzo[b]thiophene-2-carboxamide] showed an IC50 of 0.0289 µM.
The same measure, in the same setting: the figure for `C=CC(=O)Nc1cc(Nc2cc(-c3cccc(NC(=O)c4cc(C)cs4)c3C)cn(C)c2=O)ccc1C(=O)N1CCOCC1` [Compound 70, N-(3-(5-((3-acrylamide-4-(morpholin-4-carbonyl)phenyl)amino)-1-methyl-6-oxo-1,6-dihydropyridin-3-yl)-2-methylphenyl)-4-methylthiophene-2-carboxamide] is 0.114 µM; for `C=CC(=O)Nc1cc(Nc2cc(-c3cccc(NC(=O)c4cc5c(s4)CCCC5)c3C)cn(C)c2=O)ccc1N1CCN(CC)CC1` [Compound 76, N-(3-(5-((3-acrylamide-4-(4-ethylpiperazin-1-yl)phenyl)amino)-1-methyl-6-oxo-1,6-dihydropyridin-3-yl)-2-methylphenyl)-4,5,6,7-tetrahydrobenzo[b]thiophene-2-carboxamide] it is 0.025 µM; for `C=CC(=O)Nc1cc(Nc2cc(-c3cccc(NC(=O)c4cc5c(s4)CCCC5)c3C)cn(C)c2=O)ccc1N1CCN(C)CC1` [Compound 75, N-(3-(5-((3-acrylamide-4-(4-methylpiperazin-1-yl)phenyl)amino)-1-methyl-6-oxo-1,6-dihydropyridin-3-yl)-2-methylphenyl)-4,5,6,7-tetrahydrobenzo[b]thiophene-2-carboxamide] it is 0.007 µM.
Regarding `C=CC(=O)Nc1cc(Nc2cc(-c3cccc(NC(=O)c4cc5ccccc5s4)c3C)cn(C)c2=O)ccc1C(=O)N1CCOCC1` [Compound 68, N-(3-(5-((3-acrylamide-4-(morpholin-4-carbonyl)phenyl)amino)-1-methyl-6-oxo-1,6-dihydropyridin-3-yl)-2-methylphenyl)benzo[b]thiophene-2-carboxamide], the midpoint of inhibition, the IC50, lay at 0.022 µM.
For `C=CC(=O)Nc1cc(Nc2cc(-c3cccc(NC(=O)c4cc5ccccc5s4)c3C)cn(C)c2=O)ccc1N1CCN(CC)CC1` [Compound 91, N-(3-(5-((3-acrylamide-4-(4-ethylpiperazin-1-yl)phenyl)amino)-1-methyl-6-oxo-1,6-dihydropyridin-3-yl)-2-methylphenyl)benzo[b]thiophene-2-carboxamide], half-maximal inhibition (IC50) was put at 0.156 µM.
The same measure, in the same setting: the figure for `C=CC(=O)Nc1cc(Nc2cc(-c3cccc(NC(=O)c4cc5c(s4)CCCC5)c3C)cn(C)c2=O)ccc1N1CCCC1` [Compound 80, N-(3-(5-((3-acrylamide-4-(pyrrolidin-1-yl)phenyl)amino)-1-methyl-6-oxo-1,6-dihydropyridin-3-yl)-2-methylphenyl)-4,5,6,7-tetrahydrobenzo[b]thiophene-2-carboxamide] is 0.083 µM; for `C=CC(=O)Nc1cc(Nc2cc(-c3cccc(NC(=O)c4ccc(N(C)C)cc4)c3C)cn(C)c2=O)ccc1C(=O)N1CCC(O)CC1` [Compound 56, N-(3-(5-((3-acrylamide-4-(4-hydroxypiperdin-1-carbonyl)phenyl)amino)-1-methyl-6-oxo-1,6-dihydropyridin-3-yl)-2-methylphenyl)-4-(dimethylamino)benzoylamide] it is 0.124 µM; for `C=CC(=O)Nc1cc(Nc2cc(-c3cccc(NC(=O)c4cc5c(s4)CCCC5)c3C)cn(C)c2=O)ccc1N1CCN(C(C)C)CC1` [Compound 89, N-(3-(5-((3-acrylamide-4-(4-isopropylpiperazin-1-yl)phenyl)amino)-1-methyl-6-oxo-1,6-dihydropyridin-3-yl)-2-methylphenyl)-4,5,6,7-tetrahydrobenzo[b]thiophene-2-carboxamide] it is 0.0231 µM.
Consider `C=CC(=O)Nc1cc(Nc2cc(-c3cccc(NC(=O)c4ccc(C(F)(F)F)cc4)c3C)cn(C)c2=O)ccc1C(=O)N1CCOCC1` [Compound 60, N-(3-(5-((3-acrylamide-4-(morpholin-4-carbonyl)phenyl)amino)-1-methyl-6-oxo-1,6-dihydropyridin-3-yl)-2-methylphenyl)-4-(trifluoromethyl)benzoylamide], for which the IC50 is 0.104 µM. Against the preceding compound, the IC50 is about 4.5-fold higher.
Regarding `C=CC(=O)Nc1cc(Nc2cc(-c3cccc(NC(=O)c4cc5c(s4)CCCC5)c3C)cn(C)c2=O)ccc1N1CCC(N(C)C)CC1` [Compound 83, N-(3-(5-((3-acrylamide-4-(4-(dimethylamino)piperidin-1-yl)phenyl)amino)-1-methyl-6-oxo-1,6-dihydropyridin-3-yl)-2-methylphenyl)-4,5,6,7-tetrahydrobenzo[b]thiophene-2-carboxamide], the IC50 came to 0.0167 µM.
For `C=CC(=O)Nc1cc(Nc2cc(-c3cccc(NC(=O)c4cccc(OC)c4)c3C)cn(C)c2=O)ccc1C(=O)N1CCOCC1` [Compound 59, N-(3-(5-((3-acrylamide-4-(morpholin-4-carbonyl)phenyl)amino)-1-methyl-6-oxo-1,6-dihydropyridin-3-yl)-2-methylphenyl)-3-methoxy Benzoylamide], 0.816 µM corresponded to half-maximal inhibition (IC50).
Consider `C=CC(=O)Nc1cc(Nc2cc(-c3cccc(NC(=O)c4ccc(N(C)C)cc4)c3C)cn(C)c2=O)ccc1N1CCN(CC)CC1` [Compound 74, N-(3-(5-((3-acrylamide-4-(4-ethylpiperazin-1-yl)phenyl)amino)-1-methyl-6-oxo-1,6-dihydropyridin-3-yl)-2-methylphenyl)-4-(dimethylamino)benzoylamide], for which half-maximal inhibition (IC50) was put at 0.023 µM. Against the preceding compound, the IC50 is about 35-fold lower.
